Test results published in the METLIN SMRT retention time set (Domingo-Almenara et al. 2019).

Assay: gradient 5% acetonitrile 3 min, to 50% in 2 min, to 85% in 15 min, held 3 min, 100 µL/min
Details: column: Zorbax Extend-C18 2.1 x 50 mm; eluents: water / acetonitrile, 0.1% formic acid
Outline: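 Using water and acetonitrile that each contained 0.1% formic acid, mixtures of ~100 pure standards were separated at 100 μL/min on a Zorbax Extend-C18 column (2.1 × 50 mm, 1.8 μm). The HPLC fed a quadrupole time-of-flight mass spectrometer working in positive and negative ionization mode, with dead and dwell volumes of 40 μL and 900 μL. Data were acquired over 3 months. Retention time was read from computationally picked adduct peaks after manual inspection of each.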

Structure (SMILES) | RP-LC retention time [s]
COc1ccccc1-c1nc2cnccn2c1NCCC(=O)NC1CCCC1 | 618
Cn1c(=O)c(N2CCC(NC(=O)Nc3ccc(Cl)cc3)CC2)nc2ccccc21 | 904
Cc1ccc(N2CC(c3nc(-c4cccc(-c5ccnn5C)c4)no3)CC2=O)cc1C (stereo not drawn) | 1010
Cc1ccc(C(=O)NCCc2nc3cccnc3n2C)c(C)c1 | 623
O=C(NC1CCCC1)C1CCN(S(=O)(=O)c2cc(C(=O)N3CCCCCC3)cs2)CC1 | 836
Clc1cccc(-c2nnc(-c3nc(NCc4ccco4)c4ccccc4n3)o2)c1 | 1050
c1ccc2c(-c3nc(C4CC4)no3)nnc(NC3CCCCC3)c2c1 | 775
Cc1ccc(C2=NC3(CCN(C(=O)c4n[nH]c5c4CCCC5)CC3)ON2)cc1 | 736
COc1cc(NC(=O)Nc2c(-c3ccc(F)cc3)nc3ccccn23)cc(OC)c1 | 678
CCOc1cccc(CNC(=O)c2cn3c(n2)CCCC3)c1 | 602
Cc1ccc2ncn(C3CCN(S(=O)(=O)c4ccc(CC(C)C)cc4)CC3)c(=O)c2c1 | 1150
COCCn1cc(CCNC(=O)Nc2cc(F)c(F)c(F)c2)c2cccnc21 | 800
CCN(CC)C(=O)c1ccc2c(c1)N(CC(=O)NC1CCCCCCC1)C(=O)CS2 | 879
O[C@@H]1CCCCC1N1CCC(c2ccccc2)CC1 (stereo partly drawn) | 702
CCC1CCCCN1S(=O)(=O)c1cc(-c2nc(C)c(C)s2)sc1C (stereo not drawn) | 1320
O=C(c1ccsc1)N1CCN(c2nnc3ccc(C(F)(F)F)cn23)CC1 | 718
O=C(Nc1cccc(-c2cn3cccnc3n2)c1)c1ccccc1Cl | 666
CCn1cc(CC(=O)NCC2CC2)c2cccnc21 | 624
O=C(c1cc(Cl)ccc1F)N1CCC2(CC1)NC(=O)N(Cc1ccc(F)cc1)C2=O | 852
COc1ccc(CC(=O)Nc2nnc(SCc3nnc(-c4ccccc4C)o3)s2)cc1 | 923

Structure (SMILES) | RP-LC retention time [s]
Cc1csc(-c2csc(S(=O)(=O)NCc3cccs3)c2)n1 | 907
COc1ccc2c(c1)C1(CCN(C(=O)Nc3cccc(F)c3)C1)C(=O)N2C (stereo not drawn) | 811
CCC(=O)n1nc(-c2ccccc2C)nc1N | 875
O=C(C1CCN(c2ccc(-c3cccs3)nn2)CC1)N1CCN(c2ccccn2)CC1 | 568
CCOc1ccccc1NC(=O)Cn1nc2c(Oc3ccccc3C)nccn2c1=O | 935
O=C(CC1CCN(C(=O)c2cc3ccccc3[nH]2)CC1)NCCN1CCCC1 | 559
CCn1cc(-c2nc(C)c(C(=O)Nc3ccc4c(c3)OCCO4)s2)c2cccnc21 | 925
O=[N+]([O-])c1cc(O)c(O)c([N+](=O)[O-])c1 | 730
Cc1ccc(NC(=O)Cn2c(N3CCOCC3)nc(C)cc2=O)c(Cl)c1 | 755
CO[C@@H]1[C@H](OC(=O)/C=C/C=C/C=C/C=C/C(=O)O)CC[C@]2(CO2)[C@H]1[C@@]1(C)O[C@@H]1CC=C(C)C | 954
CCn1cc(-c2nc(C(=O)Nc3ccc(F)c(F)c3)cs2)c2cccnc21 | 940
Cc1nc(-c2csc(S(=O)(=O)N3CCCC(C(=O)NCCc4ccc(Cl)cc4)C3)c2)no1 (stereo not drawn) | 982
COc1ccc2c(c1)C1(CCN(C(=O)COc3ccccc3)C1)C(=O)N2 (stereo not drawn) | 733
C=CCN1CCN(c2nc3cc(C(=O)OC)ccc3c(=O)n2-c2cccc(Cl)c2)CC1 | 681
Cn1nc(C(=O)N2CCCCC2)c2c1CCN(C(=O)CCC(=O)N1CCCC1)C2 | 622
CCOc1cccc(-c2noc(Cn3ncn4nc(-c5ccccc5Cl)cc4c3=O)n2)c1 | 1250
COc1ccc(NC(=O)Cn2ccc3ccc(-c4nnc(C)o4)cc32)cc1 | 937
Cc1nnc(-c2cc3ccccc3n2Cc2ccccc2Cl)o1 | 1100
O=C(c1ccc2c(c1)OCO2)N1CCC2(CC1)N=C(c1ccccc1)NO2 | 858
Cc1ccc(CNC(=O)C2CCCN(c3nnc(C)c4c(C)n(-c5ccc(Cl)cc5)nc34)C2)cc1 (stereo not drawn) | 784

Structure (SMILES) | RP-LC retention time [s]
CCN1CCC2(CC1)N=C(c1ccc(F)cc1)CC(c1cc(Cl)ccc1O)N2 (stereo not drawn) | 635
COc1ccc(-c2nc3cnccn3c2Nc2ccc(C(=O)N3CCOCC3)cc2)cc1 | 664
C[C@H]1CN(C(=O)c2ccc3ccccc3n2)C[C@@H]1c1nc(-c2ccncc2)no1 | 830
CC(C)(C)c1ccc(C(=O)NC2CCN(c3cc(-c4ccccc4)[nH]n3)C2)cc1 (stereo not drawn) | 872
Cc1nc(C2(C)CCN(C(=O)CCc3cc(Cl)no3)CC2)no1 | 750
Cc1ccc(-c2csc(Nc3c(C)n(C)n(-c4ccccc4)c3=O)n2)cc1 | 788
CCCOc1nc2ccccc2nc1N1CCCC(C(=O)Nc2cc(Cl)ccc2OC)C1 (stereo not drawn) | 611
COc1ccccc1-c1cc(C(=O)N2CCN(c3ncccn3)CC2)c2ccccc2n1 | 803
CC(NC(=O)c1ccccc1)c1nc(-c2ccc3oc(-c4ccccc4)nc3c2)no1 (stereo not drawn) | 1090
CCCNC(=O)C1Cc2cc(S(=O)(=O)N3CCCCCC3)ccc2N1C(C)=O (stereo not drawn) | 744
CC(Cc1cccs1)NC(=O)Cc1ccc(SC(C)C)cc1 (stereo not drawn) | 969
CCCn1ccc2oc(C)c(C(=O)NCc3ccccc3Br)c2c1=O | 1110
CSc1cccc(NC(=O)CN2CCC3(CC2)N=C(c2ccc(Cl)cc2)C(=O)N3)c1 | 627
O=C(NC1CCCC1)C1CCCN(c2nccnc2Sc2ccccc2)C1 (stereo not drawn) | 1020
O=C1CC(c2nc(-c3ccc4c(c3)OCO4)no2)CN1c1ccc(F)cc1 (stereo not drawn) | 923
Cn1c(=O)n(CC(=O)N2CCCC2)c(=O)c2cnc(-c3ccc(Cl)cc3)nc21 | 924
Cc1cc(C)c(S(=O)(=O)N(CCN2CCCCC2C)CC(=O)N2CCNCC2)cc1C (stereo not drawn) | 601
CC(C)NC(=O)c1ccc2c(c1)CCN2C(=O)C1CC1 | 808
Cc1sc(-c2cc(C(F)(F)F)[nH]n2)cc1S(=O)(=O)N1CCN(c2cccc(Cl)c2)CC1 | 1230
COc1ccc(-c2ncc3c(n2)CCN(S(=O)(=O)c2cccc(F)c2)C3)cc1 | 1060

The next lines start with the values.

RP-LC retention time [s] | Structure (SMILES)
754 | CCC(CC)NC(=O)c1c(OCC2CC2)cc(=O)n2c1CCCCC2
936 | O=c1ccc(S(=O)(=O)N2CCCCCC2)cn1Cc1ccccc1F
810 | COCc1noc([C@@H]2CC(F)(F)CN2C(=O)C2CCCC2)n1
777 | CCNC(=O)c1cnn(-c2ccc(-c3nc(CC)no3)cn2)c1C
606 | C=CCNC(=O)c1c2c(nc3ccc(C)cc13)CCC2
585 | CCOC(=O)CNC(=O)N1CCN(Cc2nc3cccnc3n2-c2ccccc2)CC1
752 | CCC(C)C(=O)NC1CCN(C2=NS(=O)(=O)C(c3ccccc3)=C2C)CC1 (stereo not drawn)
1300 | CCC(C)n1c(=O)c2ccccc2n(Cc2nc(-c3cccc(C(F)(F)F)c3)no2)c1=O (stereo not drawn)
996 | O=C(Nc1ccc2sccc2c1)c1ccc(Cl)s1
902 | CCN1c2ccc(C)cc2C(=O)NC12CCN(C(=O)c1ccc(C)cc1C)CC2
560 | O=C(C1CCN(c2ccc3nncn3n2)CC1)N1CCN(c2ccccn2)CC1
880 | CNC(=O)N1CCCC(c2cccc(C(=O)NC(C)c3ccc(C)cc3C)c2)C1 (stereo not drawn)
545 | COCCn1c(CCCC(=O)NCc2ccccn2)nc2cccnc21
636 | Cc1ncc(-c2ccnc(Nc3ccc(S(C)(=O)=O)cc3)n2)n1C(C)C
1130 | CCc1nc(-c2cccc(-c3noc(CNS(=O)(=O)c4ccc(Cl)cc4)n3)c2)cs1
880 | Cc1ccc(N2CC(c3nc(-c4ccc5c(c4)nnn5C)no3)CC2=O)cc1C (stereo not drawn)
839 | O=C(Nc1nnc(SCC(=O)N2CCc3ccccc32)s1)NC1CCCCC1
575 | CN(C)C(=O)c1cc(N(C)C)nc2ccc(F)cc12
659 | COc1ccc(C(=O)N2CCC[C@H]2c2nc(-c3ccccc3)n[nH]2)cn1
885 | O=S(=O)(c1ccc2nncn2c1)N(Cc1ccccc1Cl)c1ccccc1
610 | CC(C)c1ccc(S(=O)(=O)N(CCN2CCCCC2C)CC(=O)N2CCNCC2)cc1 (stereo not drawn)
1080 | Cc1cccc(-c2nc(-c3ccc(S(=O)(=O)N4CCOCC4)cc3)no2)c1
1090 | CCCn1c(=O)c(C)nc2cc(-c3noc(-c4cc(OC)cc(OC)c4)n3)ccc21
893 | O=C1NC2(CCN(C(=O)Nc3ccc(Br)cc3)CC2)N=C1c1cccc(F)c1
871 | Cc1cc2c(=O)n(CC(=O)Nc3ccc(Cl)cc3F)ccc2s1
711 | CC1CCN(c2nccnc2Oc2ccc(C(=O)N3CCN(c4ccccn4)CC3)cc2)CC1
657 | CCn1nccc1-c1csc(S(=O)(=O)N2CCN(c3ccccn3)CC2)c1
590 | COc1ccc2c(c1)c(CN1CCC(C(=O)NCCN(C)Cc3ccccc3)CC1)cn2C
